Measurements from patent publication US3954793A, “1-(2-Propynyl)-1 H-indazole compounds” (priority 1973, dated 1976).

Assays:
[1] = test system: IN/WHO strain house flies; test: topical application, percent kill after 24 hours, susceptible IN/WHO strain; assay type: in vivo, female); settings: for percent kill after 24 hours, synergist alone (GS 13005 part of Table XXXI): GS 13005 0, synergist 1 μg/fly; for percent kill after 24 hours, synergist alone: insecticide 0, synergist 1 μg/fly; for percent kill after 24 hours, with Diazinon: Diazinon 0.03 + synergist 0.15 μg/fly
Method in brief: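 Insecticide plus synergist in acetone, 1.0 μl applied to the thorax of CO2-anesthetized 3-to-5-day-old female IN/WHO house flies, doses in μg/fly. Flies held 10 per dish, 3-5 dishes per treatment, with skim milk. Percent mortality scored after 24 h.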

[2] = test system: male mice; test: extension of sleeping time of depressant drugs by synergists; assay type: in vivo, male mice (Swiss albino white); settings: for Mean Sleeping Time, Noludar / Relative Sleeping Time, Noludar: Noludar 110 mg/kg; for Relative Sleeping Time, Noludar / Relative Sleeping Time, Secobarbital: treated/control; for Mean Sleeping Time, Secobarbital / Relative Sleeping Time, Secobarbital: Secobarbital 37 mg/kg
Method in brief: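 Swiss albino male mice (~38 days, 25-30 g) given synergist at 74.0 or 110.0 mg/kg in corn oil 1 h before Secobarbital 37.0 mg/kg or Noludar 110.0 mg/kg in water. Sleeping time measured from drug dosing to righting-reflex recovery; relative sleeping time = treated ÷ drug-only control.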

[3] = test system: Rutgers A strain house flies; test: topical application, percent kill after 24 hours, resistant Rutgers A strain; assay type: in vivo, female); settings: for percent kill after 24 hours, with GS 13005: GS 13005 1.0 + synergist 5.0 μg/fly; for percent kill after 24 hours, synergist alone: insecticide 0, synergist 5.0 μg/fly
Method in brief: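 Synergist plus mobam, Diazinon or GS 13005 dissolved in acetone, applied as 1.0 μl to the thorax of CO2-anaesthetised 3-to-5 day old female Rutgers A (resistant) house flies; doses in μg/fly. Flies held 10 per dish, 3-5 dishes per treatment, with skim milk; mortality scored at 24 h.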

[4] = GS 13005 0.10 + synergist 0.50 μg/fly
[5] = Mobam 0.20 + synergist 1 μg/fly
[6] = synergist 110 mg/kg one hour prior
[7] = synergist 74 mg/kg one hour prior
[8] = GS 13005 0.05 + synergist 0.25 μg/fly
[9] = GS 13005 0.10 + synergist 0.125 μg/fly
[10] = GS 13005 0.10 + synergist 0.25 μg/fly

Compound | percent kill after 24 hours, synergist alone (GS 13005 part of Table XXXI) [1] [%] | percent kill after 24 hours, with GS 13005 [1, 4] [%] | percent kill after 24 hours, with Mobam [1, 5] [%] | percent kill after 24 hours, synergist alone [1] [%] | Mean Sleeping Time, Noludar [2, 6] [min] | Relative Sleeping Time, Noludar ([2]; synergist 110 mg/kg) | Mean Sleeping Time, Secobarbital [2, 7] [min] | Relative Sleeping Time, Secobarbital ([2]; synergist 74 mg/kg) | Mean Sleeping Time, Secobarbital [2, 6] [min] | Relative Sleeping Time, Secobarbital ([2]; synergist 110 mg/kg) | percent kill after 24 hours, with GS 13005 [3] [%] | percent kill after 24 hours, synergist alone [3] [%] | percent kill after 24 hours, with Diazinon [1] [%] | percent kill after 24 hours, with GS 13005 [1, 8] [%] | percent kill after 24 hours, with GS 13005 [1, 9] [%] | percent kill after 24 hours, with GS 13005 [1, 10] [%] | also measured
C#CCOCc1c(Cl)cccc1[N+](=O)[O-] [II-K] | 10 | 100 | 100 | 10 | 75 | 2.4 | 48 | 1.5 | 44 | 2 | 100 | 0 |  |  |  |  | 24 hour percent mortality, Baygon with five parts II-K ([1]; Baygon 0.125 μg/fly, five parts synergist): 83%; 24 hour percent mortality, Bidrin with five parts II-K ([1]; Bidrin 0.063 μg/fly, five parts synergist): 0%; 24 hour percent mortality, Bidrin with five parts II-K ([1]; Bidrin 0.13 μg/fly, five parts synergist): 57%; 24 hour percent mortality, Dimetilan with five parts II-K ([1]; Dimetilan 0.031 μg/fly, five parts synergist): 7%; 24 hour percent mortality, Dimetilan with five parts II-K ([1]; Dimetilan 0.063 μg/fly, five parts synergist): 70%; 24 hour percent mortality, Dimetilan with five parts II-K ([1]; Dimetilan 0.13 μg/fly, five parts synergist): 100%; 24 hour percent mortality, Gardona with five parts II-K ([1]; Gardona 0.031 μg/fly, five parts synergist): 63%; 24 hour percent mortality, Gardona with five parts II-K ([1]; Gardona 0.063 μg/fly, five parts synergist): 100%; 24 hour percent mortality, HRS 1422 with five parts II-K ([1]; HRS 1422 0.125 μg/fly, five parts synergist): 77%; 24 hour percent mortality, Pyrolan with five parts II-K ([1]; Pyrolan 0.063 μg/fly, five parts synergist): 7%; 24 hour percent mortality, Pyrolan with five parts II-K ([1]; Pyrolan 0.13 μg/fly, five parts synergist): 40%; 24 hour percent mortality, Pyrolan with five parts II-K ([1]; Pyrolan 0.25 μg/fly, five parts synergist): 80%; percent kill after 24 hours, with Mobam ([3]; Mobam 0.40 + synergist 2.0 μg/fly): 97%
C#CCOCc1ccccc1[N+](=O)[O-] [II-P, 2-nitrobenzyl 2-propynyl ether] | 0 | 96 |  | 0 | 44 | 1.5 |  |  | 46 | 1.0 | 92 | 0 | 30 | 10 | 69 | 85 | 
C#CCOCc1ccc([N+](=O)[O-])cc1 [II-Q, 4-nitrobenzyl 2-propynyl ether] | 0 | 90 |  |  | 41 | 2.1 | 30 | 1.1 | 73 | 1.6 | 100 | 0 |  | 25 | 43 | 67 | 
C#CCOCc1cccc2ccccc12 [II-R, α-napthylmethyl 2-propynyl ether] | 0 | 68 |  | 0 | 49 | 1.7 | 35 | 1.2 | 96 | 1.6 | 55 | 0 | 22 |  | 49 | 65 | 
C#CCOC(c1ccc(Cl)cc1)C(C)[N+](=O)[O-] (stereo not drawn) [IV-C] |  | 89 | 64 | 0 | 74 | 2.5 | 112 | 4.7 |  |  | 95 | 0 | 29 | 9 | 63 | 75 | percent kill after 24 hours, with Mobam ([1]; Mobam 0.20 + synergist 0.25 μg/fly): 39%; percent kill after 24 hours, with Mobam ([1]; Mobam 0.20 + synergist 0.50 μg/fly): 60%; percent kill after 24 hours, with Diazinon ([3]; Diazinon 3.0 + synergist 3.0 μg/fly): 19%
